Assay results: the supplement of paper PMC11451515

Legend:
Experiment in all cases: AUC of viability dose-response curve (% viability x log10 dose units); higher = less sensitive
Conditions in all cases: 48 h
[1] = tested on: SEM cells
Summary of the method: (§1)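 Area under the curve was integrated by trapezoidal rule from a log-logistic fit of normalised viability, with curves exceeding full viability scaled and quality-control failures removed. The fit had four parameters over log10 doses. Viability came from CellTiter-Glo One luminescence, normalised per plate to DMSO and cell-free wells, after leukemia cells adapted to each medium (500 or 1000 cells/well, 1536-well plates) were exposed to library compounds in DMSO for 48 h at 37°C. The 11 threefold doses ran from 47 μM to 0.79 nM.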

[2] = tested on: P12-Ichikawa
Summary of the method: as §1

[3] = tested on: NOMO1
Summary of the method: as §1

[4] = RPMI 5 mM glucose + 10% dialyzed FBS

Row | Compound | AUC of viability dose-response curve ([1]; HPLM + 10% dialyzed FBS) | AUC of viability dose-response curve ([1]; RPMI 5 mM glucose + 10% FBS) | AUC of viability dose-response curve [1, 4] | AUC of viability dose-response curve ([2]; HPLM + 10% dialyzed FBS) | AUC of viability dose-response curve ([2]; RPMI 5 mM glucose + 10% FBS) | AUC of viability dose-response curve [2, 4] | AUC of viability dose-response curve ([3]; HPLM + 10% dialyzed FBS) | AUC of viability dose-response curve ([3]; RPMI 5 mM glucose + 10% FBS) | AUC of viability dose-response curve [3, 4]
1 | N#Cc1c(NC(=O)c2cccc3ccccc23)sc2c1CCCC2 | 318 | 304 | 310 | 325 | 325 | 346 | 345 | 339 | 346
2 | O=C(NC[C@H](O)CO)c1ccncc1Nc1ccc(I)cc1F | 426 | 376 | 378 | 467 | 437 | 464 | 328 | 290 | 309
3 | Cc1[nH]c2ccccc2c1CCNCc1ccc(/C=C/C(=O)NO)cc1 | 265 | 251 | 273 | 298 | 292 | 304 | 300 | 311 | 312
4 | CN1\C(=C(\O)C2=CC=CC=C2[S+]1([O-])=O)C(=O)NC3=NC=C(C)S3 | 447 | 427 | 430 | 416 | 392 | 420 | 476 | 449 | 410
5 | Cc1cn(-c2cc(NC(=O)c3ccc(C)c(Nc4nccc(-c5cccnc5)n4)c3)cc(C(F)(F)F)c2)cn1 | 377 | 345 | 347 | 328 | 340 | 346 | 436 | 407 | 419
6 | CC(C)C1=C(O)C=C(O)C(=C1)C/2=N/NC(=O)N2C3=CC4=C(C=C3)[N](C)C=C4 | 248 | 241 | 259 | 335 | 304 | 307 | 259 | 254 | 250
7 | CCC(C)(Oc1ccc(C2(c3ccc(OC(C)(CC)C(=O)O)cc3)CCCCC2)cc1)C(=O)O (configuration not stated) | 471 | 454 | 472 | 458 | 459 | 426 | 475 | 456 | 469
8 | CN[C@@H]1[C@H](O)[C@H](NC)[C@H]2O[C@@]3(O)C(=O)C[C@@H](C)O[C@H]3O[C@@H]2[C@H]1O | 465 | 445 | 458 | 457 | 450 | 446 | 438 | 424 | 467
